Reference: patent US12459932B2, “KIF18A inhibitors” (AMGEN INC., priority 2018, dated 2025)

Each compound was assayed against T1, Recombinant human KIF18A (1-467 His-tagged) (Homo sapiens, UniProt Q8NI77) (assay: KIF18A Enzyme Assay: microtubule-stimulated ATPase activity (ADP-Glo)). Settings: 30 nM KIF18A, 30 μg/mL pig microtubules, ATP 75 μM (Km), ADP-Glo luminescence.
T1 construct: Recombinant human KIF18A (1-467 His-tagged) protein; His
Assay type: biochemical
Method: KIF18A Enzyme Assay: Microtubule-stimulated ATPase activity assay is used to measure KIF18A enzyme activity after treatment with compound. Compounds were 2-fold serially diluted in DMSO (Sigma Inc) over 22-point concentration range. […] The assay measures ADP formed from the ATPase reaction. […] Read luminescence using EnVision microplate reader with ultra-luminescence module (Perkin Elmer Inc). Concentration-response curve-fitting and IC50 determination was performed using Genedata Screener Software (Standard 15.0.1, Genedata Inc) with a four-parameter logistic regression fit model.

T1 sequence (Q8NI77 1-467): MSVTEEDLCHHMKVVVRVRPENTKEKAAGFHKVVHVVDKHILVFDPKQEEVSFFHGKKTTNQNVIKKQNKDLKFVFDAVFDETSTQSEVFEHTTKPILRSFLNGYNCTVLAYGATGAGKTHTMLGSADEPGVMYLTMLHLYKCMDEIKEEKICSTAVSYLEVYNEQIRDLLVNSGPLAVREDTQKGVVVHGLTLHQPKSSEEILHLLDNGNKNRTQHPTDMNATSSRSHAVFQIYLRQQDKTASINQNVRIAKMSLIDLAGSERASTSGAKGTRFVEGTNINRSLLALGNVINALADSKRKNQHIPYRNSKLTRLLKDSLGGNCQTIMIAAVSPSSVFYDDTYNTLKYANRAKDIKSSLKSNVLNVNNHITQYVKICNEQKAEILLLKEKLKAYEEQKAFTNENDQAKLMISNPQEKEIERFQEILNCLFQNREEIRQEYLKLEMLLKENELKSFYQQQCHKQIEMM
T1 sequence (P02550 whole entry partner): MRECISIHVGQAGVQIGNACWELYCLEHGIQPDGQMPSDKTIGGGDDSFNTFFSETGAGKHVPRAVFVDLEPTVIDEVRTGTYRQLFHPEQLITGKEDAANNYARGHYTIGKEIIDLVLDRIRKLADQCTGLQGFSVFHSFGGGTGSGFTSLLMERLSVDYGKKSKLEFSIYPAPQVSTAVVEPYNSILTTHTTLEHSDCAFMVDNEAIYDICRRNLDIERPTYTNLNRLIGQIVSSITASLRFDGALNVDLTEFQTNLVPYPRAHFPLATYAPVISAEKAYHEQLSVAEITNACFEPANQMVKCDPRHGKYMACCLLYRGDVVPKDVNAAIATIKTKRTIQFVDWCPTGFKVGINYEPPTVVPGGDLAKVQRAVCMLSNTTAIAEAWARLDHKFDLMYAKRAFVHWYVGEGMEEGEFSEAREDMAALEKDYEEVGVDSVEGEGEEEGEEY
T1 sequence (P02554 whole entry partner): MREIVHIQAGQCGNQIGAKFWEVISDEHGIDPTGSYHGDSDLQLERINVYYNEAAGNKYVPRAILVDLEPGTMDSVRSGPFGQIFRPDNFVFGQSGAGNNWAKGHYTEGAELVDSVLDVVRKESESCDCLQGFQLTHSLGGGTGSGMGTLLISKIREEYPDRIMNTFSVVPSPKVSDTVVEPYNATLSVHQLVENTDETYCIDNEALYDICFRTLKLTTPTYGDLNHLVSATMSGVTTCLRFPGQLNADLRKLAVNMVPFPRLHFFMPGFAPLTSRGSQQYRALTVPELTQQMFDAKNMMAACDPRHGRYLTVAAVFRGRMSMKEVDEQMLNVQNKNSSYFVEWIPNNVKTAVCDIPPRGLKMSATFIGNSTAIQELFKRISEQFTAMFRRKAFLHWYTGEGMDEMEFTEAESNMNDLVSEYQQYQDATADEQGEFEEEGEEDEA

IC50	Compound
16 nM	C[C@H](CO)S(=O)(=O)Nc1ccc(C(=O)Nc2cccc(OCCC(F)(F)F)n2)c(N2CCC3(CC2)CC3)c1 (single isomer, unassigned) [Example 8-1]
14 nM	C[C@@H](CO)S(=O)(=O)Nc1ccc(C(=O)Nc2cccc(OCCC(F)(F)F)n2)c(N2CCC3(CC2)CC3)c1 (single isomer, unassigned) [Example 8-2]
33 nM	C[C@H](CO)S(=O)(=O)Nc1ccc(C(=O)Nc2cccc(N3CC(F)C3)n2)c(N2CCC3(CC2)CC3)c1 (single isomer, unassigned) [Example 9-1]
47.2 nM	C[C@@H](CO)S(=O)(=O)Nc1ccc(C(=O)Nc2cccc(N3CC(F)C3)n2)c(N2CCC3(CC2)CC3)c1 (single isomer, unassigned) [Example 9-2]
25 nM	C[C@H](CO)S(=O)(=O)Nc1ccc(C(=O)Nc2cccc(N3CC(F)(F)C3)n2)c(N2CCC3(CC2)CC3)c1 (single isomer, unassigned) [Example 9-3]
68 nM	C[C@@H](CO)S(=O)(=O)Nc1ccc(C(=O)Nc2cccc(N3CC(F)(F)C3)n2)c(N2CCC3(CC2)CC3)c1 (single isomer, unassigned) [Example 9-4]
17 nM	Cc1cc(NC(=O)c2ccc(NS(=O)(=O)[C@H](C)CO)cc2N2CCC3(CC2)CC3)nc(N2CC(F)(F)C2)c1 (single isomer, unassigned) [Example 9-5]
57 nM	Cc1cc(NC(=O)c2ccc(NS(=O)(=O)[C@@H](C)CO)cc2N2CCC3(CC2)CC3)nc(N2CC(F)(F)C2)c1 (single isomer, unassigned) [Example 9-6]
27 nM	Cc1cc(NC(=O)c2ccc(NS(=O)(=O)[C@@H](C)CO)cc2N2CCC3(CC2)CC3)nc(N2CCC(F)(F)CC2)c1 (single isomer, unassigned) [Example 9-7]
38 nM	Cc1cc(NC(=O)c2ccc(NS(=O)(=O)[C@H](C)CO)cc2N2CCC3(CC2)CC3)nc(N2CCC(F)(F)CC2)c1 (single isomer, unassigned) [Example 9-8]
41 nM	C[C@@H](CO)S(=O)(=O)Nc1ccc(C(=O)Nc2cccc(N3CCC(F)(F)CC3)n2)c(N2CCC3(CC2)CC3)c1 (single isomer, unassigned) [Example 9-9]
37 nM	C[C@H](CO)S(=O)(=O)Nc1ccc(C(=O)Nc2cccc(N3CCC(F)(F)CC3)n2)c(N2CCC3(CC2)CC3)c1 (single isomer, unassigned) [Example 9-10]
38 nM	Cc1cc(NC(=O)c2ccc(NS(=O)(=O)[C@H](C)CO)cc2N2CCC3(CC2)CC3)nc(N2CCO[C@H](C)C2)c1 (single isomer, unassigned) [Example 9-11]
39 nM	Cc1cc(NC(=O)c2ccc(NS(=O)(=O)[C@@H](C)CO)cc2N2CCC3(CC2)CC3)nc(N2CCO[C@H](C)C2)c1 (single isomer, unassigned) [Example 9-12]
18 nM	Cc1cc(NC(=O)c2ccc(NS(=O)(=O)[C@H](C)CO)cc2N2CCC3(CC2)CC3)nc(N2CCOCC2)c1 (single isomer, unassigned) [Example 9-13]
18 nM	Cc1cc(NC(=O)c2ccc(NS(=O)(=O)[C@@H](C)CO)cc2N2CCC3(CC2)CC3)nc(N2CCOCC2)c1 (single isomer, unassigned) [Example 9-14]
37 nM	C[C@@H]1CN(c2cccc(NC(=O)c3ccc(NS(=O)(=O)[C@H](C)CO)cc3N3CCC4(CC3)CC4)n2)CCO1 (single isomer, unassigned) [Example 9-15]
48 nM	C[C@@H]1CN(c2cccc(NC(=O)c3ccc(NS(=O)(=O)[C@@H](C)CO)cc3N3CCC4(CC3)CC4)n2)CCO1 (single isomer, unassigned) [Example 9-16]
24 nM	C[C@H](CO)S(=O)(=O)Nc1ccc(C(=O)Nc2cccc(N3CCO[C@@H](C)C3)n2)c(N2CCC3(CC2)CC3)c1 (single isomer, unassigned) [Example 9-17]
36 nM	C[C@H]1CN(c2cccc(NC(=O)c3ccc(NS(=O)(=O)[C@@H](C)CO)cc3N3CCC4(CC3)CC4)n2)CCO1 (single isomer, unassigned) [Example 9-18]
